In patent publication US20220273659A1, “HETEROCYCLIC COMPOUNDS AS KINASE INHIBITORS” (NUVATION BIO INC., priority 2019, published 2022):

Experiments:
[1] = molecular target: T1, FMS kinase (Homo sapiens, UniProt P07333); assay: LanthaScreen Eu Kinase Binding Assay (ATP, fluorescent-PolyGT substrate); type: biochemical
T1 construct: purchased Invitrogen (Life Technologies)
Method: IC50 values of compounds against FMS kinase were determined by LanthaScreen™ Eu Kinase Binding Assay at Invitrogen (Life Technologies Grand Island, N.Y.) where total reaction volume was 10 μL in low-volume 384-well plates (#4511, Corning). Serially diluted compounds (3-fold) were incubated with kinase (1.25 nM) for 10 min, following which a mixture of ATP (10 μM) (#A1852, Sigma, St-Louis, Mo.) and fluorescent-PolyGT substrate (200 nM) (#PV3610, Invitrogen, Life Technologies Grand Island, N.Y.) was added and incubated in dark at room temperature for 1H. After 1H, 10 μL stop solution containing Terbium labeled antibody (4 nM) (#PV3529, Invitrogen, Life Technologies Grand Island, N.Y.) and EDTA (#E5134, Sigma, St-Louis, Mo.) (20 mM) in TR-FRET dilution buffer (#PV3574, Invitrogen, Life Technologies Grand Island, N.Y.) was added. Readings were taken in a Synergy Neo Plate reader (BioTek, Winooski) at single excitation of 340 nm and Dual emission at 495 nm and 520 nm respectively.
The following equations were used for LanthaScreen Eu Kinase Binding Assay Data Analysis. Percent inhibition (100-% activity) was fitted to the “four-parameter logistic model” in XLfit for determination of IC50 values.

[2] = molecular target: T2, PI3Kδ kinase (Homo sapiens, UniProt O00329); assay: PI3Kδ kinase assay (ADP-Glo, Reaction Biology); type: biochemical
T2 construct: purchased Reaction Biology Corporation (assay service)
T2 sequence (O00329 whole entry): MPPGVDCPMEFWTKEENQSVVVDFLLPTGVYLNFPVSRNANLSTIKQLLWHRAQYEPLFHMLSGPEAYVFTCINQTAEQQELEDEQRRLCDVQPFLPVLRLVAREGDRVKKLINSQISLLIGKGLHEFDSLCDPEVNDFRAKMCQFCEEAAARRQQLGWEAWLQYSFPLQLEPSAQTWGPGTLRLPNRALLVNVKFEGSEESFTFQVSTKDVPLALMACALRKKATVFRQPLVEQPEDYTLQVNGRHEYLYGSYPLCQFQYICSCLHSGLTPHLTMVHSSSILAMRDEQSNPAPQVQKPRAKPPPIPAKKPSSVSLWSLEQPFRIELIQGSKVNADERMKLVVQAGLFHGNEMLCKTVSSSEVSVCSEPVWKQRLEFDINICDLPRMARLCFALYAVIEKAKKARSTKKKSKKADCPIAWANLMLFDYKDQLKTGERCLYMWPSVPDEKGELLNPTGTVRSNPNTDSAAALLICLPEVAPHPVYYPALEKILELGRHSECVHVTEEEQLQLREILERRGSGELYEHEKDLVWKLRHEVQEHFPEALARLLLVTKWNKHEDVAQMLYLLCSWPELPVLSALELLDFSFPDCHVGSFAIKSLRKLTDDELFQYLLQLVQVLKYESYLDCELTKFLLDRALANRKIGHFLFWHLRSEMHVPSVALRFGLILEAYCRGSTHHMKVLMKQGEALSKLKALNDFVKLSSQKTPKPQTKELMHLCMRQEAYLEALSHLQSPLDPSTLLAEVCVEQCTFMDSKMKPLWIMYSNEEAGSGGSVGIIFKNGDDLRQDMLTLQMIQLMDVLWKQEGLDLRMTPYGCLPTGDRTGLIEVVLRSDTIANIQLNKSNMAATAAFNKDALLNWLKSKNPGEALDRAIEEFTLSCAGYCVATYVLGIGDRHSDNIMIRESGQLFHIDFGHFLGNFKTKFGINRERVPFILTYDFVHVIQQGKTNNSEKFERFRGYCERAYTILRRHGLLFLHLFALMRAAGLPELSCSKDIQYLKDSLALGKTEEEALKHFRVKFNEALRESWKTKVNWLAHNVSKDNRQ
T2 sequence (P27986 whole entry partner): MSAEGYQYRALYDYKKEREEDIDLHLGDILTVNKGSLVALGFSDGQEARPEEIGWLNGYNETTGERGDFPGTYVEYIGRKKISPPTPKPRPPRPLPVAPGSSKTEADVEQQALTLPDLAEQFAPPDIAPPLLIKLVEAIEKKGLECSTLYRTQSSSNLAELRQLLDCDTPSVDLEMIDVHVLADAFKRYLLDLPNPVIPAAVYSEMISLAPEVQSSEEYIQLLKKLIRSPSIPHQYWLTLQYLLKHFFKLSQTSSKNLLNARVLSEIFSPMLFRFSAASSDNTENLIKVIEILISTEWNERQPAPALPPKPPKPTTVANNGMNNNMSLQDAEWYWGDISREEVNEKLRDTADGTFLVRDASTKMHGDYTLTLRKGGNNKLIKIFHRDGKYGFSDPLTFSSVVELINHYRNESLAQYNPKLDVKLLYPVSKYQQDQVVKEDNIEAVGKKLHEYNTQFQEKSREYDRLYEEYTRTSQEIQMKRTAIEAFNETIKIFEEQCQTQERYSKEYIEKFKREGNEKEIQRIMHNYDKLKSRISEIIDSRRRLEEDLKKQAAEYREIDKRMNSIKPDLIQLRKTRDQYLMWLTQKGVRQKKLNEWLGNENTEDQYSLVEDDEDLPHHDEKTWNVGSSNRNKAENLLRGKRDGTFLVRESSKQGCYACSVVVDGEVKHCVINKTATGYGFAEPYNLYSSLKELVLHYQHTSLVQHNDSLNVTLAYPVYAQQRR
Method: IC50 values of compounds against the PI3Kδ kinase were determined by an assay performed by Reaction Biology Corporation (Malvern, Pa.). Briefly, this assay was conducted in buffer (Tris-HCl 40 mM (pH7.5), Orthovanadate 3 mM, MgCl2 20 mM, DTT 2 mM, CHAPS 0.05%, DMSO 1%). PI3Kδ kinase was added to the reaction solution and mixed gently. The test compounds in 100% DMSO (at specific solutions) were mixed with the kinase reaction mixture to achieve the final compounds at pre-defined concentrations (e.g., range −0.5 nM to 100 μM) by Acoustic technology (Echo550; nanoliter range). After incubating for 10 min at room temp, ATP was added into the reaction mixture to initiate the reaction followed by a 30-min incubation at 30° C. After quenching the reaction with ADP-Glo reagent, the plates were incubated for 40 min. The Detection Mixture was added, and the plate was incubated for an additional 30 min. At the end of incubation, luminescence was measured. For data analysis, the luminescence was converted into μM ADP production based on ADP standard curves. The nonlinear regression to obtain the standard curve and IC50 values was performed using GraphPad Prism (GraphPad Software, Inc., San Diego, Calif.).

[3] = tested on: MCF-7 breast adenocarcinoma cells; assay: Cancer cell proliferation assay, single agent (cell viability); type: cell-based; details: Homo sapiens, MCF7, Table 4; Rb positive; treatment 144 Hr with medium change at 72 Hr; Cell Titer-Glo or resazurin
Method: (§1) The effects of test compounds were studied in three breast cancer cell lines of different subtype. The cancer cells (Table 3) were harvested during the logarithmic growth period and counted. Cell concentrations were adjusted to the appropriate number with respective medium and 90 μL cell suspensions were added to 96-well plates. After cells were seeded, the plates were shaken gently to distribute cells evenly and incubated at 37° C., 5% CO2 on day 1.
(§2) Cells were treated with test compounds at 7 to 9 concentrations within a desired concentration range (e.g. 1.1 nM-10 μM) on day 2 by series diluting the test compound stock solution (10 mM in DMSO) with culture medium. Treatment duration was 24 Hr for BT-549 cells and 144 Hr (with a medium change at 72 Hr) for MCF-7 and DU4475 cells. Cell viability was assessed by Cell Titer-Glo® as recommended by Promega (Cat. No.: G7572), or by resazurin assay (Sigma Aldrich, Cat. No.: R7017) post treatment.
(§3) Cell viability data were plotted using GraphPad Prism (GraphPad Software, Inc., San Diego, Calif.). In addition, a nonlinear regression model with a sigmoidal dose response and variable slope within GraphPad Prism was used to calculate the IC50 value of individual test compounds.

[4] = molecular target: T3, CDK6 (Homo sapiens, UniProt Q00534); assay: In vitro kinase inhibition IC50, luminescence (ADP Glo), retinoblastoma substrate; type: biochemical; details: read-out: CDK6/D1 IC50
T3 construct: purchased Invitrogen PR8422B
T3 sequence (Q00534 whole entry): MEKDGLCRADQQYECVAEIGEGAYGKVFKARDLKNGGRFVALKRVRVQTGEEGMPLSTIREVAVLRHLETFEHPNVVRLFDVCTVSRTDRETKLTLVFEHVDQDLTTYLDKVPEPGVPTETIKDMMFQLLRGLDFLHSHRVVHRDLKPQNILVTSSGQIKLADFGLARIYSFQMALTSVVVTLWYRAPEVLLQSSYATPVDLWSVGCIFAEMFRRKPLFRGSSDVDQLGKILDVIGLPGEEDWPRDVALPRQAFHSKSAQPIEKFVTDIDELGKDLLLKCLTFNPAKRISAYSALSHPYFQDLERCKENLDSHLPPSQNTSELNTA
T3 sequence (P24385 whole entry partner): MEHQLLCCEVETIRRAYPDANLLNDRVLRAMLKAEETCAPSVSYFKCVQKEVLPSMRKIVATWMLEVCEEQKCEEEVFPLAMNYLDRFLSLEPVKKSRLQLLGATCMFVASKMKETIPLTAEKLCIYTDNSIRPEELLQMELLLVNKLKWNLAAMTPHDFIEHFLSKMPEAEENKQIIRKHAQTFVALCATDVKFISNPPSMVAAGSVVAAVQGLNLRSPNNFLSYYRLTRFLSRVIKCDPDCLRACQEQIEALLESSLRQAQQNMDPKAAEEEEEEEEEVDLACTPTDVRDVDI
Method: (§4) IC50 values of compounds against CDK4 and CDK6 were determined by luminescence using retinoblastoma as substrate. Kinase assays were performed in kinase buffer (#PV6135, Invitrogen Life Technologies, Grand Island, N.Y.) where total reaction volume was […] in 96-well half area white plates (#3693, Costar). One microliter of 25×test compounds at specific concentrations (e.g., final concentration range: 0.1 nM-200 nM) was mixed with 10 μL of 2.5×kinase (5 nM, CDK4 #PR8064A and CDK6 #PR8422B, Invitrogen) solution and 14 μL of 4× mixed solution with retinoblastoma (1 μM, #12-439, EMD Millipore, Hayward, Calif.) and ATP (25 μM, #V7038, Promega, Madison, Wis.). The plates were covered and incubated for 2H at room temperature. At the end of incubation, 25 μL of stop solution—ADP Glo reagent (#V7002, Promega) was added. After incubation for 45 min at room temperature, 50 μL of detection reagent (##V7002, Promega) was added. Readings were taken at 15 min and 45 min incubation after detection reagent was added in a Synergy Neo Plate reader (BioTek, Winooski, Vt.) at single excitation of 340 nm and Dual emission at 495 nm and 520 nm respectively. The following equations were used in the CDK4 and CDK6 assay data analysis. Percent inhibition (100-% activity) was fitted to the “four-parameter logistic model” in XLfit for determination of IC50 values.
(§5) Percent conversion of enzyme=100−{(RLUNo Drug−No enzyme*100)/RLUNo drug+Enzyme} Equation 1:
(§6) Percent conversion at each data point=100−{(RLUAverage(Drug+enzyme)*100)!RLUNo drug+Enzyme} Equation 2:
(§7) Percent Inhibition=100*(% Conversioneach data point/% ConversionEnzyme) Equation 3: […]

[5] = molecular target: T4, CDK4 (Homo sapiens, UniProt P11802); assay: as above; type: biochemical; details: read-out: CDK4/D1 IC50
T4 construct: purchased Invitrogen PR8064A
T4 sequence (P11802 whole entry): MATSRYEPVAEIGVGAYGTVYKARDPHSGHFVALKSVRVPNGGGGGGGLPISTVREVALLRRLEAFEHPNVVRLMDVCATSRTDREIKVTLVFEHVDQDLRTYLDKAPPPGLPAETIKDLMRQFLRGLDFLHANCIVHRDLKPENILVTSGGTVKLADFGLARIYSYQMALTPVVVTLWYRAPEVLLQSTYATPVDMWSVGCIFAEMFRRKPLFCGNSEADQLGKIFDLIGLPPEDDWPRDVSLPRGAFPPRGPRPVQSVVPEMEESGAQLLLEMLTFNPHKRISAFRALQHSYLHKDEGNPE
T4 sequence (P24385 whole entry partner): as the sequence (P24385 whole entry partner) above
Method: as §4, §5, §6, §7

[6] = tested on: DU4475 breast carcinoma cells; assay: Cancer cell proliferation assay, single agent (cell viability); type: cell-based; details: Homo sapiens, DU-4475; Table 4; Rb negative; treatment 144 Hr with medium change at 72 Hr; Cell Titer-Glo or resazurin
Method: as §1, §2, §3

T1 sequence (P07333 20-972): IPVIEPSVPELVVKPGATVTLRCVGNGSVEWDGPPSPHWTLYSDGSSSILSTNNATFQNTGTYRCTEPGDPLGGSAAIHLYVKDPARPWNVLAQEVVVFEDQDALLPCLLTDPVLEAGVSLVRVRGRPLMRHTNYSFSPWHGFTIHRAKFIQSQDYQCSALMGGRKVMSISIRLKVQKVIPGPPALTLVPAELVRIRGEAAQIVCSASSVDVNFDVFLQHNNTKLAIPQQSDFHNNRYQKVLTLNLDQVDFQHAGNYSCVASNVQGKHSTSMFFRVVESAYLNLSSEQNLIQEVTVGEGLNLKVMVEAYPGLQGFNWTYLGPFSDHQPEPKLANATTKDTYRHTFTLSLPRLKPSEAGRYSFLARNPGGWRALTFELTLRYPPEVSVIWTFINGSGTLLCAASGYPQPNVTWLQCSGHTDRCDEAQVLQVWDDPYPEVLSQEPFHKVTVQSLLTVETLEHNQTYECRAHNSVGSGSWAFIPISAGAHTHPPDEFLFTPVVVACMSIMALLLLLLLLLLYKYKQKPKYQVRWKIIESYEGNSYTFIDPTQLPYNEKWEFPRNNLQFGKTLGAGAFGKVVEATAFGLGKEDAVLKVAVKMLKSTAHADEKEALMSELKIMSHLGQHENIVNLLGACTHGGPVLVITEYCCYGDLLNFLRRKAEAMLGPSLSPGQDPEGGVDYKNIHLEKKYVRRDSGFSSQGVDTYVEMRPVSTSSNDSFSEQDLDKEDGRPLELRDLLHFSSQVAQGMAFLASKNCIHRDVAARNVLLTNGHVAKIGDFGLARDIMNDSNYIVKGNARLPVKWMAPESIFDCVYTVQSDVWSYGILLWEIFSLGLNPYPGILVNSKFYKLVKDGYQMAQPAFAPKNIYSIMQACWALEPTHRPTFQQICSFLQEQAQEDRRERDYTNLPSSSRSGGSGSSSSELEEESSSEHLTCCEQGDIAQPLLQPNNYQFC

Row | Compound | IC50 [1] [nM] | IC50 [2] [nM] | IC50 [3] [nM] | IC50 [4] [nM] | IC50 [5] [nM] | IC50 [6] [µM]
1 | C[C@H]1CC[C@H](n2c(=O)c(C#N)cc3cnc(Nc4ccc5c(c4)C(=O)NCC5)nc32)CC1 [Compound No. 7, 8-((1r,4r)-4-methylcyclohexyl)-7-oxo-2-((1-oxo-1,2,3,4-tetrahydroisoquinolin-7-yl)amino)-7,8-dihydropyrido[2,3-d]pyrimidine-6-carbonitrile] | 8 | – | – | – | – | –
2 | CC1(C)CNCc2cc(Nc3ncc4cc(C#N)c(=O)n(C5CCCC5)c4n3)ccc21 [Compound No. 8, 8-cyclopentyl-2-((4,4-dimethyl-1,2,3,4-tetrahydroisoquinolin-7-yl)amino)-7-oxo-7,8-dihydropyrido[2,3-d]pyrimidine-6-carbonitrile] | – | 2460 | – | – | – | –
3 | CN1CCN(C(=O)c2cccc(Nc3ncc4cc(C#N)c(=O)n(C5CCCC5)c4n3)c2)CC1 [Compound No. 16, 8-cyclopentyl-2-((3-(4-methylpiperazine-1-carbonyl)phenyl)amino)-7-oxo-7,8-dihydropyrido[2,3-d]pyrimidine-6-carbonitrile] | 7 | – | 6020 | > 200 | > 200 | –
4 | CN1CCN(S(=O)(=O)c2cccc(Nc3ncc4cc(C#N)c(=O)n(C5CCCC5)c4n3)c2)CC1 [Compound No. 17, 8-cyclopentyl-2-((3-((4-methylpiperazin-1-yl)sulfonyl)phenyl)amino)-7-oxo-7,8-dihydropyrido[2,3-d]pyrimidine-6-carbonitrile] | 53 | – | 3230 | > 200 | > 200 | –
5 | N#Cc1cc2cnc(Nc3cccc(S(=O)(=O)N4CCC(O)CC4)c3)nc2n(C2CCCC2)c1=O [Compound No. 18, 8-cyclopentyl-2-((3-((4-hydroxypiperidin-1-yl)sulfonyl)phenyl)amino)-7-oxo-7,8-dihydropyrido[2,3-d]pyrimidine-6-carbonitrile] | 74 | – | 1420 | > 200 | > 200 | –
6 | N#Cc1cc2cnc(Nc3ccc4c(c3)NC(=O)C4)nc2n(C2CCCC2)c1=O [Compound No. 19, 8-cyclopentyl-7-oxo-2-((2-oxoindolin-6-yl)amino)-7,8-dihydropyrido[2,3-d]pyrimidine-6-carbonitrile] | < 1 | – | 2360 | 38 | 35 | –
7 | N#Cc1cc2cnc(Nc3cccc(S(=O)(=O)N4CCOCC4)c3)nc2n(C2CCCC2)c1=O [Compound No. 20] | 99 | – | 1050 | > 200 | > 200 | –
8 | CC1CN(c2ccc(Nc3ncc4cc(C#N)c(=O)n(C5CCCC5)c4n3)nc2)CCN1 (centres unmarked) [Compound No. 23, 8-cyclopentyl-2-((5-(3-methylpiperazin-1-yl)pyridin-2-yl)amino)-7-oxo-7,8-dihydropyrido[2,3-d]pyrimidine-6-carbonitrile] | 53 | – | 750 | 7 | 70.5 | 12.4
9 | N#Cc1cc2cnc(Nc3ccc4c(c3)C(=O)NC4)nc2n(C2CCCC2)c1=O [Compound No. 24, 8-cyclopentyl-7-oxo-2-((3-oxoisoindolin-5-yl)amino)-7,8-dihydropyrido[2,3-d]pyrimidine-6-carbonitrile] | 5 | – | > 30000 | 35 | > 200 | –
10 | CC1CCN(c2ccc(Nc3ncc4cc(C#N)c(=O)n(C5CCCC5)c4n3)cc2)CC1 [Compound No. 25, 8-cyclopentyl-2-((4-(4-methylpiperidin-1-yl)phenyl)amino)-7-oxo-7,8-dihydropyrido[2,3-d]pyrimidine-6-carbonitrile] | 13 | – | > 30000 | 38 | > 200 | –
11 | N#Cc1cc2cnc(Nc3ccc(N4CCNCC4)cc3F)nc2n(C2CCCC2)c1=O [Compound No. 26, 8-cyclopentyl-2-((2-fluoro-4-(piperazin-1-yl)phenyl)amino)-7-oxo-7,8-dihydropyrido[2,3-d]pyrimidine-6-carbonitrile] | 6 | – | 533 | 6 | 42 | –
12 | N#Cc1cc2cnc(Nc3cc(F)c(N4CCNCC4)c(F)c3)nc2n(C2CCCC2)c1=O [Compound No. 27, 8-cyclopentyl-2-((3,5-difluoro-4-(piperazin-1-yl)phenyl)amino)-7-oxo-7,8-dihydropyrido[2,3-d]pyrimidine-6-carbonitrile] | 3.5 | – | 138 | 3.5 | 18 | –
13 | N#Cc1cc2cnc(Nc3cnn(C4CCC(O)CC4)c3)nc2n(C2CCCC2)c1=O (centres unmarked) [Compound No. 51, 8-cyclopentyl-2-((1-(4-hydroxycyclohexyl)-1H-pyrazol-4-yl)amino)-7-oxo-7,8-dihydropyrido[2,3-d]pyrimidine-6-carbonitrile] | 1 | – | 570 | 42 | 91 | –
14 | CN1CCn2nc(Nc3ncc4cc(C#N)c(=O)n(C5CCCC5)c4n3)cc2C1 [Compound No. 52, 8-cyclopentyl-2-((5-methyl-4,5,6,7-tetrahydropyrazolo[1,5-a]pyrazin-2-yl)amino)-7-oxo-7,8-dihydropyrido[2,3-d]pyrimidine-6-carbonitrile] | 6.5 | – | 6310 | 13 | 39 | –
15 | CCC(C)n1c(=O)c(C#N)cc2cnc(Nc3ccc4c(c3)CCNC4)nc21 (centres unmarked) [Compound No. 80, 8-(sec-butyl)-7-oxo-2-((1,2,3,4-tetrahydroisoquinolin-6-yl)amino)-7,8-dihydropyrido[2,3-d]pyrimidine-6-carbonitrile] | – | 295 | 498 | 22 | 128 | 0.87
